Where two headings read alike, the source gives them in different places.
How the values were obtained:
[1] = test system: KC-0178:NCI-1975 EGFR-L858R/T790M/C797S; experiment: Cell proliferation inhibition experiment (CCK-8), KC-0178; assay type: cell-based; conditions: Homo sapiens, 72 h
Description: (§1) Inhibition rate %=[(A0−AS)/(A0−AC)]×100%.

[2] = test system: KC-1362 BaF3-EGFR D770-N771 ins NPG cells; experiment: Anti-proliferative activity on KC-1362 BaF3-EGFR D770-N771 ins NPG cells; assay type: cell-based; conditions: Ba/F3 EGFR
[3] = test system: KC-1474:PC-9 EGFR-Del19/T790M/C797S; experiment: Cell proliferation inhibition experiment (CCK-8), KC-1474; assay type: cell-based; conditions: Homo sapiens, 72 h
Description: as §1

HCC827 EGFR-Del19 = experiment: Cell proliferation inhibition experiment (CCK-8), HCC827; assay type: cell-based; conditions: Homo sapiens, 72 h
Description: as §1

A549 EGFR-WT = experiment: Cell proliferation inhibition experiment (CCK-8), A549; conditions: Homo sapiens, A549, 72 h, read-out: cell proliferation inhibition IC50 (μM) A549, 72 h, CCK-8
[4] = biological target: EGFR D770-N771 ins NPG kinase (Homo sapiens (Human), UniProt P00533, INS770NPG); experiment: In-vitro enzyme experiment 1 (HTRF kinase assay), D770-N771 ins NPG kinase; assay type: biochemical
PC-9 EGFR-Del19 = experiment: Cell proliferation inhibition experiment (CCK-8), PC-9; assay type: cell-based; conditions: Homo sapiens, 72 h
Description: as §1

H1975 EGFR-L858R/T790M = experiment: Cell proliferation inhibition experiment (CCK-8), H1975; assay type: cell-based; conditions: Homo sapiens, NCI-H1975, 72 h
Description: as §1

[5] = biological target: EGFR (D770-N771 ins NPG T790M) kinase (Homo sapiens (Human), UniProt P00533, INS770NPG/T790M); experiment: In-vitro enzyme experiment 1 (HTRF kinase assay), EGFR D770-N771 ins NPG T790M; assay type: biochemical
Method: (§2) The specific experiment was as follows: • 1. Preparation of 1× concentration kinase buffer • 1 volume of 5 times concentration of an enzyme buffer diluted with 4 volumes of distilled water; 5 mM magnesium chloride; 1 mM DTT; and 1 mM MnCl2. • 2. Test method of activity of compound • a) a compound diluent was transferred to each well of an assay plate (784075, Greiner) using Echo 550; • b) the assay plate was sealed and centrifuged at 1,000 g for 1 min; • c) 2×EGFR (D770-N771 ins NPG T790M) was prepared in a 1× kinase buffer; • d) 5 μl of the 2×EGFR (D770-N771 ins NPG T790M) was added to a 384-well assay plate (784075, Greiner); • e) the assay plate was centrifuged at 1,000 g for 30 s and incubated at room temperature for 10 min; • f) 2× TK-substrate-biotin (2 μM) and ATP were added to the 1× kinase buffer and mixed; • g) the reaction was started after adding 5 μl of the TK-substrate-biotin (2 μM) and ATP mixture; • h) the assay plate was centrifuged at 1,000 g for 30 s; and the assay plate was sealed and incubated at room temperature for 40 min; • i) 4× Sa-XL 665 was prepared in an HTRF detection buffer; • j) 5 μl of the Sa-XL 665 and 5 μl of a TK-antibody-cryptate were added to each well of the assay plate; • k) the assay plate was centrifuged at 1,000 g for 30 s and incubated at room temperature for 1 h; and • l) fluorescence signals at 615 nm (cryptate) and 665 nm (XL665) were read on an Envision 2104 reader. • 3. Data analysis • 3.1 Calculation of ratio (665/615 nm) of each well • 3.2 Calculation of inhibition rate
(§3) [formula] • 3.3 Calculation of IC50 value of compound and drawing dose-effect curve of compound • IC50 values were calculated using GraphPad 6.0 by applying a non-linear regression curve (dose-effect relationship-variable slope) of the logarithm of the compound concentration versus the inhibition rate.
Y=lowest value+(highest value−lowest value)/(1+10^((Log IC50−X)×slope)) • X: logarithm of inhibitor concentration; and Y: inhibition rate. • 3.4 Double test report • 3.4.1 After one tester completed a report, another tester again checked the report to ensure that data analysis was correct. • 3.4.2 The data was exported from the software and manually analyzed. • 3.4.2.1 The rate was converted into the inhibition rate. All the IC50 values were first calculated with the inhibition rate using Prism GraphPad 6.0. • 3.4.2.2 Then the IC50 value was recalculated using the ratio to check the accuracy of the analysis. • 3.4.3 The number of all the compounds was ensured to be correct.

[6] = biological target: EGFR-Del19/T790M/C797S kinase (Homo sapiens, UniProt P00533, C797S/T790M, form not given); experiment: In-vitro enzyme experiment 2 (HTRF kinase assay), EGFR Del19 T790M C797S; assay type: biochemical; conditions: read-out: enzyme inhibition IC50 (nM) EGFR-Del19/T790M/C797S
Method: as §2, with “Preparation of 1× concentration kinase buffer • 1 volume of 5 times concentration of an enzyme buffer diluted with 4 volumes of distilled water; 5 mM magnesium chloride; 1 mM DTT; and 1 mM MnCl2. • 2.” left out
as §3
The preparation of the kinase buffer, the test method of the activity of the compound, and the data analysis referred to the relevant definitions in example 117, wherein step c) of the test method of the activity of the compound was replaced by preparing 2×EGFR Del19 T790M C797S in the 1× kinase buffer.

Sequence of EGFR-Del19/T790M/C797S kinase (P00533 25-1210 T790M/C797S limits assumed, form open): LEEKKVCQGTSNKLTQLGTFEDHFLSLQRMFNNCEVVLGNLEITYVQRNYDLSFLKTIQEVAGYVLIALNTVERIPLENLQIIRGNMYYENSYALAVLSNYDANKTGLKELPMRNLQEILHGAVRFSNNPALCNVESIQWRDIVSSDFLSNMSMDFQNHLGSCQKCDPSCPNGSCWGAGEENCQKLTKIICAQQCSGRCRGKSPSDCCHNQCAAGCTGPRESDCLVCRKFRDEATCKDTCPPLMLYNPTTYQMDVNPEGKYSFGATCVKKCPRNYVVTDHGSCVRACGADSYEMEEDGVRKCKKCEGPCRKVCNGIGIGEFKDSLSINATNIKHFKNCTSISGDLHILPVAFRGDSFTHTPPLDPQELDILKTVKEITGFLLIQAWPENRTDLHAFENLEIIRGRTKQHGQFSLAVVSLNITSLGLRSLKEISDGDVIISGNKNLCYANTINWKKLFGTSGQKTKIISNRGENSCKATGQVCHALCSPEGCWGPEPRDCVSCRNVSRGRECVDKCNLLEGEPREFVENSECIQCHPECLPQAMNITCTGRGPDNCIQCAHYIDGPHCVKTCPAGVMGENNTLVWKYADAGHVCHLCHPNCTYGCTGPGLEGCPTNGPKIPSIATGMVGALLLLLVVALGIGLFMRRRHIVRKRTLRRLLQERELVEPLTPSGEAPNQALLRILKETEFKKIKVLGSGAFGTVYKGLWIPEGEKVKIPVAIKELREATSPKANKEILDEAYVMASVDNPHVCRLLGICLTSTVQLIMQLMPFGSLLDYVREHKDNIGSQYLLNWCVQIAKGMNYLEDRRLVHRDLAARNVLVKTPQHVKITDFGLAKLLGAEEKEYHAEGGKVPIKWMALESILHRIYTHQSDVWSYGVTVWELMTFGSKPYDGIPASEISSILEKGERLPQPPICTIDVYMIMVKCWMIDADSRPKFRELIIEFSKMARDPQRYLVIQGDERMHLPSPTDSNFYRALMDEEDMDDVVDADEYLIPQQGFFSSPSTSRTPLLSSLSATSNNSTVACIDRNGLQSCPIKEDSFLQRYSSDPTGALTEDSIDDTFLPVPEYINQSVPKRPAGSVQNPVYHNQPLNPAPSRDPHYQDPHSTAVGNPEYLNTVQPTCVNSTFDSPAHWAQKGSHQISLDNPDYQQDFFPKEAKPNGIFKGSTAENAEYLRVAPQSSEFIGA
Sequence of EGFR (D770-N771 ins NPG T790M) kinase (P00533 other isoform, or with tags, fused parts or gaps T790M/del 1-668/ins NPG behind 770 limits assumed): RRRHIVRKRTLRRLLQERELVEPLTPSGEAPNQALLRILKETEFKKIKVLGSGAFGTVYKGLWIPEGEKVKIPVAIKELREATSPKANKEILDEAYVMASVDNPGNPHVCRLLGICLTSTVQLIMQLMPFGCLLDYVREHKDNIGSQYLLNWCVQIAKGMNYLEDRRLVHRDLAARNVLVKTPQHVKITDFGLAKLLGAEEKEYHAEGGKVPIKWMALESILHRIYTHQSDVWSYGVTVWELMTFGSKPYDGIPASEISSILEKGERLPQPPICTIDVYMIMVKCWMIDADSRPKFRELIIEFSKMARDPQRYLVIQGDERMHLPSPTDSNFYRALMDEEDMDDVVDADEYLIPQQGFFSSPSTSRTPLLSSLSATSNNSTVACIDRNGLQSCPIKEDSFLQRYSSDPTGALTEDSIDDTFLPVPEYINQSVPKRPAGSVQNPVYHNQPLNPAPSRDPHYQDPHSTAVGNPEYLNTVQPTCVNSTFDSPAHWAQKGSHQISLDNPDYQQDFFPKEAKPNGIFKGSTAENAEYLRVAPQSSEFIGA
Sequence of EGFR D770-N771 ins NPG kinase (P00533 other isoform, or with tags, fused parts or gaps del 1-668/ins NPG behind 770 limits assumed): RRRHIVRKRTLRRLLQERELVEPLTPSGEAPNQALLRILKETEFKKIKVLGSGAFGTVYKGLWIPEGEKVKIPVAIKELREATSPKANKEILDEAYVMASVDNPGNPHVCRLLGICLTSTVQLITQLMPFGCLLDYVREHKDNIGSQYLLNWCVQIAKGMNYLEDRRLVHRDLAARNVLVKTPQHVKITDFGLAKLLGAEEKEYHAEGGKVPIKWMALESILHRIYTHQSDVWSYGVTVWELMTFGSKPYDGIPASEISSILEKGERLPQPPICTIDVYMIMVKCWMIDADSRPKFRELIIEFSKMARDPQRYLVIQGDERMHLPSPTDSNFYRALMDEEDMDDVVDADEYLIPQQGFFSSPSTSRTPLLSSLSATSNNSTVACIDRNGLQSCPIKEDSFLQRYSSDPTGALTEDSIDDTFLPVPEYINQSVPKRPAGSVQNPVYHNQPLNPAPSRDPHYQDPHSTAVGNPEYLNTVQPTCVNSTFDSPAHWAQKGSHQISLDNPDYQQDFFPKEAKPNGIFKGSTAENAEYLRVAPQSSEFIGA

Row | SMILES | IC50 [1] [µM] | IC50 [2] [nM] | IC50 [3] [µM] | IC50 (HCC827 EGFR-Del19) [µM] | IC50 (A549 EGFR-WT) [µM] | IC50 [4] [nM] | IC50 (PC-9 EGFR-Del19) [µM] | IC50 (H1975 EGFR-L858R/T790M) [µM] | IC50 [5] [nM] | IC50 (A549 EGFR-WT; Table 5 numeric) [µM] | IC50 [6] [nM]
1 | CN1CCN(c2ccc(Nc3nc(N[C@H]4CC[C@H](CO)CC4)c4c(C(=O)c5ccc(F)cc5)c[nH]c4n3)cc2)CC1 [Example 42] | 1 to 2 | 35 | < 0.1 | 0.1 to 1 | 1 to 2 | 4.44 | < 0.1 | 0.1 to 1 | – | – | –
2 | C=CC(=O)N1CC[C@@H](Nc2nc(Nc3ccc(N4CCN(C)CC4)cc3)nc3[nH]cc(C(=O)c4ccc(F)cc4)c23)C1 [Example 26] | – | 150 | – | – | – | 3.52 | – | – | 6.31 | 0.52 | –
3 | Cn1cc(Nc2nc(N[C@H]3CC[C@@H](CO)CC3)c3c(C(=O)c4ccc(F)cc4)c[nH]c3n2)cn1 [Example 114] | 0.1 to 1 | 160 | < 0.1 | – | 0.1 to 1 | 4.12 | < 0.1 | < 0.1 | 18.2 | – | < 10
4 | CN1CCN(c2ccc(Nc3nc(NC4CCN(S(C)(=O)=O)CC4)c4c(C(=O)c5ccc(F)cc5)c[nH]c4n3)cc2)CC1 [Example 64] | – | 200 | – | – | – | 24.2 | – | – | 93.6 | – | 100 to 600
5 | CN1CCN(c2ccc(Nc3nc(NC45CC6CC(C4)C(O)C(C6)C5)c4c(C(=O)c5ccc(F)cc5)c[nH]c4n3)cc2)CC1 (centres unmarked) [Example 71] | – | 70 | – | – | – | 4.54 | – | – | 9.27 | – | 10 to 100
6 | CN1CCN(c2ccc(Nc3nc(NC4CCCCC4O)c4c(C(=O)c5ccc(F)cc5)c[nH]c4n3)cc2)CC1 (centres unmarked) [Example 43] | – | – | – | 0.1 to 1 | – | – | 0.1 to 1 | 0.1 to 1 | – | – | 100 to 600
7 | CCN1CCN(c2ccc(Nc3nc(N[C@H]4CC[C@@H](CO)CC4)c4c(C(=O)c5ccc(F)cc5)c[nH]c4n3)cc2)CC1 [Example 104] | 0.1 to 1 | 160 | < 0.1 | – | – | 2.72 | < 0.1 | < 0.1 | 11.4 | – | < 10
8 | C=CC(=O)N1CC[C@@H](Nc2nc(Nc3cnn(C)c3)nc3[nH]cc(C(=O)c4ccc(F)cc4)c23)C1 [Example 109] | – | 120 | – | 0.1 to 1 | 0.1 to 1 | 3 | < 0.1 | 0.1 to 1 | 7.27 | – | –
9 | CN1CCN(c2ccc(Nc3nc(NC4CC5(COC5)C4)c4c(C(=O)c5ccc(F)cc5)c[nH]c4n3)cc2)CC1 [Example 18] | – | 150 | – | – | – | 28.2 | – | – | – | – | 10 to 100
10 | C=CC(=O)N1CC[C@H](Nc2nc(Nc3ccc(N4CCN(C)CC4)cc3)nc3[nH]cc(C(=O)c4ccccc4F)c23)C1 [Example 46] | – | – | – | 0.1 to 1 | – | – | < 0.1 | < 0.1 | – | – | –
11 | Cn1cc(Nc2nc(N[C@H]3CC[C@H](CO)CC3)c3c(C(=O)c4ccc(F)cc4)c[nH]c3n2)cn1 [Example 110] | < 0.1 | – | 0.1 to 1 | < 0.1 | 0.1 to 1 | – | < 0.1 | – | – | – | 10 to 100
12 | O=C(c1cccc(F)c1)c1c[nH]c2nc(Nc3ccc(N4CCOCC4)cc3)nc(N[C@H]3CC[C@H](CO)CC3)c12 [Example 92] | – | – | – | < 0.1 | – | – | 0.1 to 1 | < 0.1 | – | 0.07 | –
13 | CN1CCN(c2ccc(Nc3nc(NC4CCOCC4)c4c(C(=O)c5ccc(F)cc5)c[nH]c4n3)cc2)CC1 [Example 40] | – | – | < 0.1 | 0.1 to 1 | 0.1 to 1 | – | 0.1 to 1 | – | – | 0.23 | –
14 | O=C(c1ccc(F)cc1)c1c[nH]c2nc(Nc3ccc(N4CCOCC4)cc3)nc(N[C@H]3CC[C@H](CO)CC3)c12 [Example 79] | < 0.1 | – | – | < 0.1 | 0.1 to 1 | – | 0.1 to 1 | 0.1 to 1 | – | – | –
15 | CN1CCN(c2ccc(Nc3nc(NC45CC6CC(CC(O)(C6)C4)C5)c4c(C(=O)c5ccc(F)cc5)c[nH]c4n3)cc2)CC1 [Example 70] | – | 54 | – | – | – | 6.55 | – | – | – | – | 10 to 100
16 | CN1CCC(n2cc(Nc3nc(N[C@H]4CC[C@@H](CO)CC4)c4c(C(=O)c5ccc(F)cc5)c[nH]c4n3)cn2)CC1 [Example 115] | 1 to 2 | 560 | 0.1 to 1 | – | 1 to 2 | 2.46 | 0.1 to 1 | 0.1 to 1 | 8.16 | – | < 10
17 | CN1CCN(c2ccc(Nc3nc(N[C@H]4CC[C@@H](CO)CC4)c4c(C(=O)c5ccc(F)cc5)c[nH]c4n3)cc2F)CC1 [Example 103] | 1 to 2 | – | < 0.1 | – | 0.1 to 1 | – | < 0.1 | 0.1 to 1 | – | – | 10 to 100
